Results on six molecules are retold here after ChEMBL document CHEMBL5465560, “Selectivity Literature for EUbOPEN Chemogenomic Library” (2024).

Experiment [1] concerns the target Death-associated protein kinase 3 (Homo sapiens) (UniProt O43293). In words: Selectivity interaction (KinomeScan (DiscoverX)) EUB0000655a DAPK3. The note with it: at 10 µM.
Experiment [2] concerns the target Mitogen-activated protein kinase kinase kinase 11 (Homo sapiens) (UniProt Q16584). In words: Selectivity interaction (ActivX KiNativ screen (ex vivo kinase selectivity in human PBMCs)) EUB0001619a MAP3K11. Type of experiment: cell-based. The note with it: PBMC, at 1 µM.
Experiment [3] deals with Ribosomal protein S6 kinase alpha-2 (Homo sapiens) (UniProt Q15349). Particulars: at 10 µM.
Chain of Ribosomal protein S6 kinase alpha-2 (Homo sapiens) (Q15349 whole entry): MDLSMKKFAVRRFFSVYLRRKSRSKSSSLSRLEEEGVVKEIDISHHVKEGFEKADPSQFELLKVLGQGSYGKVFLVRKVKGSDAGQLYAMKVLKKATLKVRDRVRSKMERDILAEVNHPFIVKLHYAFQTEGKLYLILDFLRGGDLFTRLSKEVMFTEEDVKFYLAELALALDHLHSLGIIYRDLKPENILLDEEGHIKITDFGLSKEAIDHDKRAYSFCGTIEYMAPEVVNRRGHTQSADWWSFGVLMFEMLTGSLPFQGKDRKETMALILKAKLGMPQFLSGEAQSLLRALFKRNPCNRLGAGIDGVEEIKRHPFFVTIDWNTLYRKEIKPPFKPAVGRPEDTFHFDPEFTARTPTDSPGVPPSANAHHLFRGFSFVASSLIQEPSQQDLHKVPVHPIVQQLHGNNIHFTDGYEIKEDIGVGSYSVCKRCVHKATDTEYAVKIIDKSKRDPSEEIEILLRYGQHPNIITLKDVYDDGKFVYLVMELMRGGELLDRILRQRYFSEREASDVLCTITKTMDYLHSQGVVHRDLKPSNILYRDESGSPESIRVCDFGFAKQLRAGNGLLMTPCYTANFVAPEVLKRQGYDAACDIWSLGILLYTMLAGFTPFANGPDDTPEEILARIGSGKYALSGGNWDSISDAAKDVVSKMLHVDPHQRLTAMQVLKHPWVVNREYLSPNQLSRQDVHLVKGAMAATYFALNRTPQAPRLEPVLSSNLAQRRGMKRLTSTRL
Experiment [4] deals with T1, Ephrin type-A receptor 8 (Homo sapiens) (UniProt P29322).
T1 sequence (whole entry): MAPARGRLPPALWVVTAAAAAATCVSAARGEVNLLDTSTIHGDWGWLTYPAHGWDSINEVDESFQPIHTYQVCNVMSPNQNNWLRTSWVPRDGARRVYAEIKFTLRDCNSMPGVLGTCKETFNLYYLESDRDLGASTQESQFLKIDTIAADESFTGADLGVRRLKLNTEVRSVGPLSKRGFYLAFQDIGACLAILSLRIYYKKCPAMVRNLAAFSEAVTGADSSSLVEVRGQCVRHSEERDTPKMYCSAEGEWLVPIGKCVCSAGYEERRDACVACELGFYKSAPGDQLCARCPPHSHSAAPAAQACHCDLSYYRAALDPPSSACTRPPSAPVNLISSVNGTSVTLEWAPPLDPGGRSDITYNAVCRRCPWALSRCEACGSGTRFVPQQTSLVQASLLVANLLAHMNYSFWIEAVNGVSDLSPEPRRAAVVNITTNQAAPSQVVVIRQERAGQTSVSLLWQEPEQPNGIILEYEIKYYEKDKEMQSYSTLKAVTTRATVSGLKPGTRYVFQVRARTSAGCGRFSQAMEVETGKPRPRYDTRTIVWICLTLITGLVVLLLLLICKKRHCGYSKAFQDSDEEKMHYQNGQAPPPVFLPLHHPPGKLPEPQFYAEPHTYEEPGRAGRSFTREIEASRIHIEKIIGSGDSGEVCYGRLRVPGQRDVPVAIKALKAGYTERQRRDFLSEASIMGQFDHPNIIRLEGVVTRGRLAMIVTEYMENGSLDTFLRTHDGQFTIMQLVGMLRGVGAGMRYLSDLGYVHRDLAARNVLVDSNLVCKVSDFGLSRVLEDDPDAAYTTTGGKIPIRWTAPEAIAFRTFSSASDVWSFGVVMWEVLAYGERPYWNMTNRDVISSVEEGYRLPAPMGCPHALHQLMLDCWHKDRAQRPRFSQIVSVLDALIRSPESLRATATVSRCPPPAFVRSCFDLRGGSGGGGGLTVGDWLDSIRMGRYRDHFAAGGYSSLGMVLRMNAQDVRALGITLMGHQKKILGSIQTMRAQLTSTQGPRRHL
Particulars: at 10 µM.

The target in experiment [5] is Melanocortin receptor 4 (Homo sapiens) (UniProt P32245). The experiment can be described thus: Selectivity interaction (Eurofins CEREP Diversity Profile (receptors and ion channels)) EUB0000279b MC4R. Particulars: at 10 µM.
Chain of Melanocortin receptor 4 (Homo sapiens) (P32245 whole entry): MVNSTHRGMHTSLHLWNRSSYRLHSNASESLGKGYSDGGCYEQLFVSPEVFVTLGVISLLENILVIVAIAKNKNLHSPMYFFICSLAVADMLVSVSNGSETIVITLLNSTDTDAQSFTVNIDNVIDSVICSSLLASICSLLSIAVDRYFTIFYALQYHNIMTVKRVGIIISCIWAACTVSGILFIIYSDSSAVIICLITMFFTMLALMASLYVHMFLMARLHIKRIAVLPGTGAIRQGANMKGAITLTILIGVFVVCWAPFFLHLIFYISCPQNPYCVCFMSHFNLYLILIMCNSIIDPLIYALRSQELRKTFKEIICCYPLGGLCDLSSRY
The target in experiment [6] is Tyrosine-protein kinase JAK1 (Homo sapiens, UniProt P23458). The experiment can be described thus: Selectivity interaction (KinomeScan (DiscoverX)) EUB0001868a JAK1. Particulars: at 1 µM.
Chain of Tyrosine-protein kinase JAK1 (P23458 whole entry): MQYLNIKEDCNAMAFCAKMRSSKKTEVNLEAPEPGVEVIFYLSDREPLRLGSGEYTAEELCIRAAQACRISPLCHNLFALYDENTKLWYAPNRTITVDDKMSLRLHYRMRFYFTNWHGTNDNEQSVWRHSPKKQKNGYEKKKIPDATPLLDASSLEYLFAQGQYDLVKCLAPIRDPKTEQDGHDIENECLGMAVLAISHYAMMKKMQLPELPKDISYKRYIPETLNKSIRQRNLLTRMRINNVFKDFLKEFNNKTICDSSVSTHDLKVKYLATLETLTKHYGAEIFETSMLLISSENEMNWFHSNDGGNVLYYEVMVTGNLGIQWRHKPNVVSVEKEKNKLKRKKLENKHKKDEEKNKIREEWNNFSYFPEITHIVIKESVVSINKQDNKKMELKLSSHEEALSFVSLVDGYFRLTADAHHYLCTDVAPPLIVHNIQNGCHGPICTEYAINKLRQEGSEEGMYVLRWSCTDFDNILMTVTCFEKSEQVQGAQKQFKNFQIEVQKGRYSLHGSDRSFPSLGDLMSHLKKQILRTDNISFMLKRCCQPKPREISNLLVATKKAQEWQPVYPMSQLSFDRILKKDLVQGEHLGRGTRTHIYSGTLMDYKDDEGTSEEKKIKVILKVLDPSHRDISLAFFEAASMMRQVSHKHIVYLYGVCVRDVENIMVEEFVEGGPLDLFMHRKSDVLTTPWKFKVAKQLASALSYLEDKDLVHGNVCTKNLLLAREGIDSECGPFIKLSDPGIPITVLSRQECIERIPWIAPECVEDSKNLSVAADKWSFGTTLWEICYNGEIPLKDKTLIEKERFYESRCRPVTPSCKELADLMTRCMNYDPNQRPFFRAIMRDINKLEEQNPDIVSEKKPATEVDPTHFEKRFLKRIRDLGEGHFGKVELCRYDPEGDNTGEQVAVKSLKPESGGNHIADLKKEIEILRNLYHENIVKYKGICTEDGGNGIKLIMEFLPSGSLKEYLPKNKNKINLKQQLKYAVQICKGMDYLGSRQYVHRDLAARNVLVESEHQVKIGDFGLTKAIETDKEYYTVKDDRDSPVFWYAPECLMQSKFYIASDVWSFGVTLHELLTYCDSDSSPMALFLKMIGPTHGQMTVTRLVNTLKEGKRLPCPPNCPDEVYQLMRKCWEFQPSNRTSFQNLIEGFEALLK
Experiment [7] concerns the target T2, Serine/threonine-protein kinase ULK1 (Homo sapiens) (UniProt O75385).
T2 sequence (whole entry): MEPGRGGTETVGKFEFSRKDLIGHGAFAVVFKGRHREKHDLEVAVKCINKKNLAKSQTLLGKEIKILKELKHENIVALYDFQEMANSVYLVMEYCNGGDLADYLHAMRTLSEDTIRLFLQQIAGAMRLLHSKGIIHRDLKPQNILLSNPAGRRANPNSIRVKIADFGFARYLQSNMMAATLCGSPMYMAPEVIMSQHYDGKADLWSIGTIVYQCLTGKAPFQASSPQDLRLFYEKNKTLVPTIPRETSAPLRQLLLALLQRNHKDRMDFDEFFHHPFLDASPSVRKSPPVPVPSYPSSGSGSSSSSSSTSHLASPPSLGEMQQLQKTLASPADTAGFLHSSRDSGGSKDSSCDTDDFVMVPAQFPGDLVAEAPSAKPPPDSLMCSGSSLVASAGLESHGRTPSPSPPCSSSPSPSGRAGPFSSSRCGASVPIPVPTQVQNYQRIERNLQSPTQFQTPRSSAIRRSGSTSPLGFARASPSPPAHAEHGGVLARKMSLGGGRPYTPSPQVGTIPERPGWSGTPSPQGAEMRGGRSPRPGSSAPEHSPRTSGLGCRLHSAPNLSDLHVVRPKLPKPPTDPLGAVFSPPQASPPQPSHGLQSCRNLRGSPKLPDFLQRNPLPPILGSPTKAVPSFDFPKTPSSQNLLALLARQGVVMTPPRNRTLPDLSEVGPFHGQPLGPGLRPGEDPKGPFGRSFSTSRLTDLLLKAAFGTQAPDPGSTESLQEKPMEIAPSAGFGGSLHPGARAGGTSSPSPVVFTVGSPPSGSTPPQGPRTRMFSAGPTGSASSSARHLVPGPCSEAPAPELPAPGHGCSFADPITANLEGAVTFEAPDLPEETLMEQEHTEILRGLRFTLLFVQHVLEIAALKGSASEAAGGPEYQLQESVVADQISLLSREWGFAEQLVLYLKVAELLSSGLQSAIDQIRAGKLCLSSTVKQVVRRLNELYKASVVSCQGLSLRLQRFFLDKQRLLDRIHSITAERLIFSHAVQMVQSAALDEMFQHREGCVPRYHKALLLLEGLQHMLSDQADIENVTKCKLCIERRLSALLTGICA
In words: Selectivity interaction (KinomeScan (DiscoverX)) EUB0000595a ULK1. The note with it: at 10 µM.

Chain of Death-associated protein kinase 3 (Homo sapiens) (O43293 whole entry, looked up): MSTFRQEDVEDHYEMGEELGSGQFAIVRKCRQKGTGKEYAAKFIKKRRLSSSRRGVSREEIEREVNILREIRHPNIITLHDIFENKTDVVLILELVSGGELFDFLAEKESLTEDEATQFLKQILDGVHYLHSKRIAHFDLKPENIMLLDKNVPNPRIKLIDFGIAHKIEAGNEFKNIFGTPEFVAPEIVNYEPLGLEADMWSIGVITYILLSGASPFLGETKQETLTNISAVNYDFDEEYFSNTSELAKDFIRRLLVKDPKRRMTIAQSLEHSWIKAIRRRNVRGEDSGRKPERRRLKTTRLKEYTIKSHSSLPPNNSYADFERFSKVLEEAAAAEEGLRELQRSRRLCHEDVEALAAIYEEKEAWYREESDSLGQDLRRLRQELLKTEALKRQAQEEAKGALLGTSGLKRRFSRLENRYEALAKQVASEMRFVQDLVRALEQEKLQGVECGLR
Chain of Mitogen-activated protein kinase kinase kinase 11 (Homo sapiens) (Q16584 whole entry, looked up): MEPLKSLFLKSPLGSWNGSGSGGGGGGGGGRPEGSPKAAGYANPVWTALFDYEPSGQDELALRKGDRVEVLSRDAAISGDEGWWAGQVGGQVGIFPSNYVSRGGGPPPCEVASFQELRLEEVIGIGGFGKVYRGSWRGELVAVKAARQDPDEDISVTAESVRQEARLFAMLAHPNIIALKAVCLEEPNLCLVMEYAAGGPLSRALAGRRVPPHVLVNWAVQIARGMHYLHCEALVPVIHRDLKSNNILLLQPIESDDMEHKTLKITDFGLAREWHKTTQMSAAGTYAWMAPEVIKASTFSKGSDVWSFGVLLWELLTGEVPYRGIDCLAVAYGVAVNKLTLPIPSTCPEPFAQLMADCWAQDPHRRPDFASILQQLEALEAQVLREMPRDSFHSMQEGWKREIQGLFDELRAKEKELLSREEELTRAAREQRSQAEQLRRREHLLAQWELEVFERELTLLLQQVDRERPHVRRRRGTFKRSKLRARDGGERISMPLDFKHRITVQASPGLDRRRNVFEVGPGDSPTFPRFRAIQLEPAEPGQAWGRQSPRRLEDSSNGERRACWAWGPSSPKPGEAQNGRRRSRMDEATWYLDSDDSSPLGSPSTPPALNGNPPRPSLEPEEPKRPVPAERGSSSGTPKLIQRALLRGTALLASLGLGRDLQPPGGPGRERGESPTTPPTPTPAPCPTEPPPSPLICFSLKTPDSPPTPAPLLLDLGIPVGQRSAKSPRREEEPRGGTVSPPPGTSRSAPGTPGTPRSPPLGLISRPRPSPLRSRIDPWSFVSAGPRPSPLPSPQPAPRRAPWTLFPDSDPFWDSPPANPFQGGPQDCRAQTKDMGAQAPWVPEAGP

`CN(C)CCOc1ccc(-c2nc(-c3ccncc3)c(-c3ccc4c(c3)CC/C4=N\O)[nH]2)cc1`: the % of control in experiment [1] turned out to be 89%.
Molecule `N#Cc1cccc(-c2c[nH]c3ncnc(N4CCOCC4)c23)c1` returned a % of inhibition in experiment [2] of 20%.
As to `CCN(CC)CCCCNc1ncc2cc(-c3cc(OC)cc(OC)c3)c(NC(=O)NC(C)(C)C)nc2n1`, the % of control in experiment [3] and in experiment [4] was 100% throughout.
In experiment [5], `CC(=O)c1cc(-c2ccccc2OCC2CC2)c2ncccn12` returned a % of control of 90%.
As for `Cc1cc(-c2ccnc(Nc3cnn(C)c3)n2)ccc1CNC(=O)N1CC(OC(C)C)C1`, in experiment [6], the % of control worked out at 29%.
Molecule `COCC(=O)NC/C=C/c1ccc2ncnc(Nc3ccc(Oc4ccc(C)nc4)c(C)c3)c2c1` [CP-724714] yielded a % of control in experiment [7] of 47%.
